Assay results published in publication PMC12169615, “Fluorescent 4‑Nitrobenzo-2-oxa-1,3-diazole-Coupled Bile Acids as Probe Substrates of Hepatic and Intestinal Bile Acid Transporters of the Solute Carrier Families SLC10 and SLCO” (Journal of Medicinal Chemistry, 2025).
Several values for one entry are separate records, joined by “and”; a condition that tells them apart may be missing. Equal entries are not always repeated.

Key:
Format in all cases: cell-based
human ASBT = molecular target: T1, human ASBT (Homo sapiens, UniProt Q12908); assay: Transport kinetics of conjugated 3-NBD-BA (concentration-dependent uptake); design: stably transfected with the full open reading frames of human NTCP, ASBT, SOAT, OATP1B1, and OATP1B3; expressed in transfected cells; conditions: for Transport rates via ASBT across the entire concentration range: ASBT-HEK293, 10 min, +Na+ vs -Na+, not considered biologically meaningful
T1 sequence (Q12908 1-348): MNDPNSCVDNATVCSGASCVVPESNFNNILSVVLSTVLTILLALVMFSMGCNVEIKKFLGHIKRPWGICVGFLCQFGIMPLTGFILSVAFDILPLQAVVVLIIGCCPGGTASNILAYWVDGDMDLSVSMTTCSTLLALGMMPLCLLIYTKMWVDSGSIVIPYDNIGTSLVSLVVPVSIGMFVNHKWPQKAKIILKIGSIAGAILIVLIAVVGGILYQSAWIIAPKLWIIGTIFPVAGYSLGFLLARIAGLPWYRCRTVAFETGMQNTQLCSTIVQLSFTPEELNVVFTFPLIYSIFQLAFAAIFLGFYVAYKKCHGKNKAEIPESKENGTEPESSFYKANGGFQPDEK
Description: (§1) In a first step, the time-dependent transport of all conjugated NBD-BA was analyzed. […] Based on these findings, an uptake phase of 10 min was selected as the most practical for subsequent kinetic transport measurements. […] In contrast, for ASBT, reliable carrier-specific concentration-dependent transport rates and K m values could only be determined for 3α-NBD-GCA (16d). The transport rates for 3β-NBD-TCA (14a), 3β-NBD-TCDCA (14b), 3β-NBD-GCA (16a), and 3α-NBD-TCA (14d) were at ≤ 2 across the entire concentration range and were therefore not considered biologically meaningful.
(§2) 7 ASBT and mAsbt transport kinetics for conjugated 3-NBD-BA. Concentration-dependent uptake of the indicated NBD-coupled BA was analyzed in HEK293 cells stably expressing human ASBT or mouse mAsbt at increasing substrate concentrations. Control experiments were performed in the absence of sodium (-Na^+). Uptake was analyzed for 10 min at 37 °C with transport buffer containing the indicated 3-NBD-BA. Afterward, the transport medium was removed, and each cell monolayer was washed and processed for fluorescence detection. Specific uptake was calculated by subtracting the nonspecific uptake in the absence of sodium (-Na^+, open symbols) from the uptake in the presence of sodium (+Na^+, closed symbols) and is shown by dotted lines. Values represent means ± SD of quadruplicate determinations. Michaelis Menten K m values were calculated by nonlinear regression analysis based on the specific uptake data. For ASBT, reliable specific uptake data could only be determined for 3α-NBD-GCA (16d).

mouse mNtcp [1] = molecular target: T2, mouse mNtcp (Mus musculus, UniProt O08705); assay: as above; conditions: mNtcp-HEK293, 10 min uptake, 37 °C, specific (Na+-dependent) uptake
T2 construct: stably transfected with the full open reading frames of human NTCP, ASBT, SOAT, OATP1B1, and OATP1B3 as well as mouse mNtcp and mAsbt; expressed in transfected cells
T2 sequence (O08705 1-362): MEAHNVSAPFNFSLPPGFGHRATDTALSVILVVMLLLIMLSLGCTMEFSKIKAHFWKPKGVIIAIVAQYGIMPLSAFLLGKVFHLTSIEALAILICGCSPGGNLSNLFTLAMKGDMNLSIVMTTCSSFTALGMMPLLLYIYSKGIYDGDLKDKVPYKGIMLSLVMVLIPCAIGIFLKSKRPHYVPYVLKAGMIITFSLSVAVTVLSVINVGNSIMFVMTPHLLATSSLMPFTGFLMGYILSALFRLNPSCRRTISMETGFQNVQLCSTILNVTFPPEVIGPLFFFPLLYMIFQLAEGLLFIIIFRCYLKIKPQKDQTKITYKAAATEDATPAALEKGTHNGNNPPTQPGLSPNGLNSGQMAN
Description: as §1
as §2, with “6 NTCP” for “7 ASBT”, “mNtcp” for “mAsbt”, “NTCP” for “ASBT”, “data.” for “data. For ASBT, reliable specific uptake data could only be determined for 3α-NBD-GCA (16d).”

human NTCP [2] = molecular target: T3, human NTCP (Homo sapiens, UniProt Q14973); assay: as above; conditions: NTCP-HEK293, 10 min uptake, 37 °C, specific (Na+-dependent) uptake
T3 construct: HEK293 cell lines stably transfected with the full open reading frames of human NTCP; expressed in transfected cells
T3 sequence (Q14973 1-349): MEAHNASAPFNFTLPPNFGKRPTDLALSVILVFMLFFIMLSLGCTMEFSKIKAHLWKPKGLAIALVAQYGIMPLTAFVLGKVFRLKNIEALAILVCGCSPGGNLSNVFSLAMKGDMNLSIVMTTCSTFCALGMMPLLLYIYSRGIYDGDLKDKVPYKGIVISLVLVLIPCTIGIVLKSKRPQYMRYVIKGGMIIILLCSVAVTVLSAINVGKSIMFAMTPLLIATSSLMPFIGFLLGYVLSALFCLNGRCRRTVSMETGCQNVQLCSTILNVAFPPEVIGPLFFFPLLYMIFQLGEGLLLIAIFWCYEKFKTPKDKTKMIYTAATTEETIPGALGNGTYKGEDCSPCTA
Description: as §1
as §2, with “6 NTCP” for “7 ASBT”, “mNtcp” for “mAsbt”, “NTCP” for “ASBT”, “data.” for “data. For ASBT, reliable specific uptake data could only be determined for 3α-NBD-GCA (16d).”

mouse mNtcp [3] = molecular target: T2, mouse mNtcp; assay: Fluorescence microscopy screening of cellular uptake of 3-NBD-BA; conditions: 50 μM, 10 min, +Na+ vs -Na+
Description: (§3) Then, all cell lines were cultivated in chamber slides and were grown to confluence to screen for carrier-mediated cellular accumulation of the synthesized NBD-BA. Incubation with the NBD-BA was done in the presence of sodium (+Na^+) as well as in the absence of sodium (-Na^+, negative control) for all SLC10 carriers, namely NTCP, ASBT, mNtcp, mAsbt, and SOAT. For OATP1B1 and OATP1B3, nontransfected HEK293 cells were used as negative control.
(§4) 4 Screening of the cellular uptake of 3-NBD-BA in HEK293 (HEK) cells stably expressing the human carriers NTCP, ASBT, SOAT, OATP1B1, and OATP1B3, or the mouse carriers mNtcp and mAsbt. For the SLC10 carriers, sodium-free conditions (-Na^+) were used as control. For the OATPs, experiments in non-carrier-expressing HEK293 cells (HEK) served as control. All cell lines were incubated for 10 min with the indicated 3-NBD-BA at 50 μM concentration. Then, cells were washed with PBS and subjected to fluorescence microscopy. Identical microscope settings were used for all images. Scale bar: 75 μm.

human NTCP [4] = molecular target: T3, human NTCP; assay: as above; conditions: 50 μM, 10 min, +Na+ vs -Na+
Description: as §3, §4

SMILES | Transport rates via ASBT across the entire concentration range (human ASBT) | K m mNtcp (mouse mNtcp [1]) [µM] | K m NTCP (human NTCP [2]) | Cellular NBD-fluorescence, mNtcp-HEK293 (microscopy) (mouse mNtcp [3]) | Cellular NBD-fluorescence, NTCP-HEK293 (microscopy) (human NTCP [4]) | K m ASBT (human ASBT; ASBT-HEK293, 10 min uptake, 37 °C, specific (Na+-dependent) uptake) [µM]
C[C@H](CCC(=O)NCCS(=O)(=O)[O-])[C@H]1CC[C@H]2[C@@H]3[C@H](O)C[C@@H]4C[C@@H](Nc5ccc([N+](=O)[O-])c6nonc56)CC[C@]4(C)[C@H]3C[C@H](O)[C@]12C.[Na+] [14a] | ≤ 2 | 20.6 | 29.5 µM | significant increase in cellular NBD-fluorescence compared to the negative control | significant increase in cellular NBD-fluorescence compared to the negative control | –
C[C@H](CCC(=O)NCC(=O)O)[C@H]1CC[C@H]2[C@@H]3[C@H](O)C[C@@H]4C[C@@H](Nc5ccc([N+](=O)[O-])c6nonc56)CC[C@]4(C)[C@H]3C[C@H](O)[C@]12C [16a] | ≤ 2 | 17.2 | 43.1 µM | significant increase in cellular NBD-fluorescence compared to the negative control | significant increase in cellular NBD-fluorescence compared to the negative control | –
C[C@H](CCC(=O)NCC(=O)O)[C@H]1CC[C@H]2[C@@H]3[C@H](O)C[C@@H]4C[C@H](Nc5ccc([N+](=O)[O-])c6nonc56)CC[C@]4(C)[C@H]3C[C@H](O)[C@]12C [16d] | – | 5.2 | 36.8 µM | significant increase in cellular NBD-fluorescence compared to the negative control | significant increase in cellular NBD-fluorescence compared to the negative control | 14.5
C[C@H](CCC(=O)NCCS(=O)(=O)[O-])[C@H]1CC[C@H]2[C@@H]3[C@H](O)C[C@@H]4C[C@H](Nc5ccc([N+](=O)[O-])c6nonc56)CC[C@]4(C)[C@H]3C[C@H](O)[C@]12C.[Na+] [14d] | ≤ 2 | 9.5 | 20.0 µM and 20 µM | significant increase in cellular NBD-fluorescence compared to the negative control | significant increase in cellular NBD-fluorescence compared to the negative control | –
